Measured values from PubChem BioAssay AID179 (DTP/NCI, 2004).
Calls of active or inactive are those of the source.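 The calls were made as follows: active = compounds giving half or more protection of infected cells from virus-caused growth loss, again on retest; inactive = the rest.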

Test system: CEM cells HIV-1 protection, formazan growth assay
Assay: NCI AIDS Antiviral Assay
Conditions: for IC50: measured here: growth of uninfected CEM cells
How it was run: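 Five concentrations of each compound were applied to infected and uninfected human CEM cells. Protection from HIV-1 was judged from growth measured with a soluble formazan assay.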

Q: Which results are given for `O=c1nc2c(c(-c3ccccc3Cl)[nH]1)COC/C2=C\c1ccccc1Cl`?
A: EC50: > 200 µM; IC50: 89.1 µM

Q: What does the source list for `CCOC(=O)/C=C/C1(CCOC(C)=O)CCCCC1`?
A: EC50: > 200 µM; IC50: 174 µM

Q: For `CCCc1cc(=O)oc2c3c(cc(OC)c12)O[C@H](C)C(C)C3=O` (some centres undefined), which EC50 is on record?
A: > 200 µM

Q: What about the IC50 of the same molecule?
A: 58.9 µM

Q: How did the outcome turn out when `COC(=O)c1nc(-c2ccc(Cl)c(Cl)c2)nc2ccc(Cl)cc12` was run?
A: inactive

Q: `CC1C2(C)OC(=N)C(C#N)(C(c3cccc([N+](=O)[O-])c3)O2)C1(C#N)C#N` (centres undefined) was tested. Which EC50 did it give?
A: > 200 µM

Q: What about the IC50 of the same molecule?
A: 11.7 µM

Q: What does the source list for `c1cnc2c(c1)CCc1cc3cccnc3nc1-2`?
A: EC50: > 200 µM; IC50: 186 µM

Q: How did the EC50 turn out when `N#CC(C(=N/O)/C(=N\O)C(C#N)c1ccccc1)c1ccccc1` (centres undefined) was run?
A: > 794 µM

Q: And the IC50?
A: 123 µM

Q: `C=C1CC2OC(=O)C(=C)C2C(O)C2C(=C)CCC12` (centres undefined) was tested. Which outcome did it give?
A: inactive

Q: `CSc1nc2[nH]c(=O)n(OS(=O)(=O)c3ccccc3)c(=O)c2n1Cc1ccccc1` was tested. Which EC50 did it give?
A: > 200 µM

Q: What about the IC50 of the same molecule?
A: 105 µM

Q: How did the EC50 turn out when `CCOC(=O)c1c(NC(=O)CCC(=O)Nc2sc(C)c(C)c2C(=O)OCC)sc(C)c1C` was run?
A: > 100 µM

Q: What about the IC50 of the same molecule?
A: > 100 µM

Q: What does the source list for `Cc1ccnc2c1ccc1nc3ccccc3n12`?
A: EC50: > 200 µM; IC50: > 200 µM

Q: With `O=C1OCCN(c2cccc(Cl)c2)CCO1` as the molecule, how does the outcome read?
A: inactive

Q: `O=S1(=O)OCCOS(=O)(=O)C1(I)I` was tested. Which EC50 did it give?
A: > 550 µM

Q: And the IC50?
A: 123 µM

Q: How did the outcome turn out when `CCCc1nn(C)c(CCC(=O)N(Cc2ccccc2)Cc2ccccc2)c1CC` was run?
A: inactive

Q: With `O=S(=O)(F)c1cccc(Cl)c1C[P+](c1ccccc1)(c1ccccc1)c1ccccc1` as the molecule, how does the EC50 read?
A: > 200 µM

Q: What about the IC50 of the same molecule?
A: 25.7 µM

Q: With `O=C(Cc1ccccc1)ONC(CCCCNC(=O)OCc1ccccc1)C(=O)Nc1ccc(Cc2ccc(NC(=O)C(CCCCNC(=O)OCc3ccccc3)NC(=O)OCc3ccccc3)cc2)cc1` (centres undefined) as the molecule, how does the EC50 read?
A: > 100 µM

Q: What about the IC50 of the same molecule?
A: > 100 µM

Q: With `CC(C)N1C(C)[C@@H](c2ccccc2)O[P@@]1(=O)/C=C/C[C@H]1CC(=O)CCN1Cc1ccccc1` (some centres undefined) as the molecule, how does the outcome read?
A: inactive

Q: Which EC50 does the source give for `FC(F)(F)c1ccc(C=NC23CC4CC(CC(C4)C2)C3)cc1` here?
A: > 61.7 µM

Q: And the IC50?
A: > 61.7 µM

Q: How did the EC50 turn out when `NC1=NC(=O)C(CC(=O)c2ccc(Cl)cc2)S1` (centres undefined) was run?
A: > 200 µM

Q: And the IC50?
A: > 200 µM

Q: What does the source list for `NC(c1ccccc1)P(=O)(OCc1ccc([N+](=O)[O-])cc1)OCc1ccc([N+](=O)[O-])cc1` (centres undefined)?
A: EC50: > 87.1 µM; IC50: 53.7 µM

Q: What does the source list for `COC(=O)c1nn2ccc3ccccc3c2c1C(=O)OC`?
A: EC50: > 200 µM; IC50: 93.3 µM

Q: Which results are given for `O=C1NC(=O)C(C(=O)Nc2ccc(Cl)cc2)c2ccccc21` (centres undefined)?
A: EC50: > 200 µM; IC50: 129 µM

Q: With `CC1(Br)OC(=O)C(C)(Br)OC1=O` (centres undefined) as the molecule, how does the EC50 read?
A: > 200 µM

Q: What about the IC50 of the same molecule?
A: > 200 µM

Q: For `Cn1c2ccccc2c(=O)c2c(O)cc3c(c21)C=CC1(CCCC1)O3`, which EC50 is on record?
A: 16.2 µM

Q: And the IC50?
A: > 200 µM

Q: Which EC50 does the source give for `O=C(/C=C/c1ccccc1)CSc1ncn[nH]1` here?
A: > 200 µM

Q: What about the IC50 of the same molecule?
A: 12 µM

Q: `CCCCCCCCCCCCCP(=O)(OC)OC` was tested. Which outcome did it give?
A: inactive

Q: With `C=CCNC(=O)NCCCC(NC(C)=O)C(=O)NCc1ccccc1` (centres undefined) as the molecule, how does the EC50 read?
A: > 72.4 µM

Q: And the IC50?
A: > 72.4 µM

Q: `OC1C2CCCCN2C[C@@H](O)[C@H]1O` (some centres undefined) was tested. Which EC50 did it give?
A: > 200 µM

Q: And the IC50?
A: > 200 µM

Q: For `O=C1OC(=O)C2C1C=C(c1ccccc1)C1C3C=CC(C4C(=O)OC(=O)C34)C21` (centres undefined), which EC50 is on record?
A: > 200 µM

Q: What about the IC50 of the same molecule?
A: > 200 µM

Q: `O=c1ccn(CC2(CO)CC(Cc3ccccc3)C2)c(=O)[nH]1` (centres undefined) was tested. Which EC50 did it give?
A: > 200 µM

Q: And the IC50?
A: > 200 µM

Q: Which EC50 does the source give for `Nc1nnc(CCC(=O)Nc2cc(Cl)ccc2Cl)n1N` here?
A: > 8.71 µM

Q: And the IC50?
A: > 8.71 µM

Q: Which results are given for `C/C(CC(C)C)=N/Nc1nc(C)cc(=O)[nH]1`?
A: EC50: > 200 µM; IC50: > 200 µM

Q: Which EC50 does the source give for `COC1=NC2=NC(OC)=NC3=C(Br)C=C(Br)C(=N1)N23` here?
A: > 9.77 µM

Q: And the IC50?
A: > 9.77 µM

Q: For `COC(=O)CCC(=O)NC1C2CC3CC(C2)CC1C3` (centres undefined), which EC50 is on record?
A: > 135 µM

Q: What about the IC50 of the same molecule?
A: > 135 µM

Q: For `Cc1ccc(S(=O)c2ccccc2[N+](=O)[O-])cc1` (centres undefined), which EC50 is on record?
A: > 35.5 µM

Q: What about the IC50 of the same molecule?
A: 28.2 µM

Q: What does the source list for `CCCCCCCCCCCC1=c2o[nH]c2=C(c2ccccn2)C(=O)C1=O`?
A: EC50: > 19.5 µM; IC50: > 19.5 µM

Q: With `C=C1CC(Cn2cc(C)c(=O)[nH]c2=O)(c2ccc(-c3ccccc3)cc2)OC1=O` (centres undefined) as the molecule, how does the EC50 read?
A: > 20 µM

Q: And the IC50?
A: 0.288 µM

Q: Which EC50 does the source give for `[N-]=[N+]=Nc1ccccc1Oc1ccccc1` here?
A: 58.9 µM

Q: What about the IC50 of the same molecule?
A: 89.1 µM

Q: What does the source list for `COc1ccc(C(Nc2ccc([N+](=O)[O-])cc2)P(=O)(c2ccccc2)c2ccccc2)cc1` (centres undefined)?
A: EC50: > 200 µM; IC50: 10.5 µM

Q: With `CC(C)(Cc1ccccc1)N1C(=O)N1C(C)(C)Cc1ccccc1` as the molecule, how does the EC50 read?
A: > 200 µM

Q: And the IC50?
A: 28.8 µM

Q: How did the outcome turn out when `CCOC(=O)C1C(=O)c2ccccc2CN1Cc1ccccc1` (centres undefined) was run?
A: inactive

Q: Which EC50 does the source give for `Nc1ccc(-c2cc3ccccc3[nH]2)cc1` here?
A: > 148 µM

Q: What about the IC50 of the same molecule?
A: 117 µM

Q: For `C1OC1CN1CCN(CC2CO2)CC1` (centres undefined), which outcome is on record?
A: inactive

Q: For `Cc1ccc(/C=N/Nc2cc(C)c3ccccc3n2)s1`, which EC50 is on record?
A: > 200 µM

Q: What about the IC50 of the same molecule?
A: 10.7 µM

Q: How did the EC50 turn out when `O=C1NCN(c2ccccc2)C12CCN(Cc1ccccc1)CC2` was run?
A: > 200 µM

Q: And the IC50?
A: > 200 µM

Q: With `N#CC1(C#N)C2C=CC(c3coc4cccc2c34)C1(C#N)C#N` (centres undefined) as the molecule, how does the outcome read?
A: inactive

Q: Which results are given for `COc1ccc(Cl)cc1NC(=O)Nc1cc(C)ccn1`?
A: EC50: > 200 µM; IC50: > 200 µM

Q: Which EC50 does the source give for `CC(C)OP(=O)(OC(C)C)/C(=N/Nc1ccc([N+](=O)[O-])cc1)NNC(=O)c1ccccc1` here?
A: > 40.7 µM

Q: And the IC50?
A: 17 µM

Q: Which EC50 does the source give for `O=C(O)CN(CC(=O)O)C1CCCCC1N(CC(=O)O)CC(=O)NCCN=C=S` (centres undefined) here?
A: > 200 µM

Q: And the IC50?
A: > 200 µM

Q: Which EC50 does the source give for `Cc1cc(O)cc(O)c1N=Nc1ccc([N+](=O)[O-])cc1` here?
A: > 200 µM

Q: What about the IC50 of the same molecule?
A: 3.47 µM

Q: `Oc1ccc2c(c1)OCC1c3cc4c(cc3OC21)OCO4` (centres undefined) was tested. Which outcome did it give?
A: inactive

Q: `O=C(Nc1ccc(NC2=NCCN2)cc1)c1ccc(C(=O)Nc2ccc(NC3=NCCN3)cc2)c([N+](=O)[O-])c1` was tested. Which EC50 did it give?
A: > 200 µM

Q: And the IC50?
A: 15.1 µM

Q: For `COC(=O)/C=C1\C(CO[Si](C)(C)C(C)(C)C)OC(n2ccc(=O)[nH]c2=O)C1O[Si](C)(C)C(C)(C)C` (centres undefined), which EC50 is on record?
A: > 200 µM

Q: What about the IC50 of the same molecule?
A: 8.32 µM

Q: `CCC(=O)C(C)C(=O)C(=O)NCCNC(=O)C(=O)C(C)C(=O)CC` (centres undefined) was tested. Which outcome did it give?
A: inactive

Q: Which results are given for `O=C(CC(C(=O)c1ccsc1)c1ccccc1)c1cccs1` (centres undefined)?
A: EC50: > 200 µM; IC50: 39.8 µM

Q: Which EC50 does the source give for `Nc1ncc(/C=N/O)c(NCC2(CO)CC(CCc3ccccc3)C2)n1` (centres undefined) here?
A: > 2 µM

Q: What about the IC50 of the same molecule?
A: 0.603 µM

Q: Which EC50 does the source give for `O=S(=O)(c1ccccc1)c1cccc2c1NCCC2` here?
A: 21.9 µM

Q: And the IC50?
A: 95.5 µM

Q: Which results are given for `CCN(CC)C(=O)C[n+]1c2ccccc2n2cc(N)ccc21`?
A: EC50: > 200 µM; IC50: > 200 µM

Q: Which results are given for `NCC1(N2CCOCC2)C2CCCC21CO` (centres undefined)?
A: EC50: > 1100 µM; IC50: > 1100 µM

Q: How did the EC50 turn out when `N#CC(C#N)=CN1CCCC1` was run?
A: > 200 µM

Q: And the IC50?
A: > 200 µM

Q: Which EC50 does the source give for `CC(C)COC(=O)N1N=NC2C3OC(CC3=O)C21` (centres undefined) here?
A: > 977 µM

Q: What about the IC50 of the same molecule?
A: > 977 µM

Q: Which EC50 does the source give for `Nc1nc2c(s1)CCC2` here?
A: > 708 µM

Q: What about the IC50 of the same molecule?
A: 5.62 µM

Q: What does the source list for `COc1ccc(-c2nnc3n(C)c4ccccc4n3c2=O)cc1`?
A: EC50: > 100 µM; IC50: > 100 µM

Q: `CCOP(=O)(OCC)/C(C#N)=C/c1ccc(OC)cc1` was tested. Which EC50 did it give?
A: > 316 µM

Q: And the IC50?
A: > 316 µM

Q: Which results are given for `Nc1nc(N)c(N=O)c(N)n1`?
A: EC50: > 200 µM; IC50: 170 µM

Q: `O=C1NC2(CCCCC2)C2CCCCCC12` (centres undefined) was tested. Which outcome did it give?
A: inactive

Q: What does the source list for `CC(OC(=O)NCn1cc(-c2ccccc2)nn1)c1ccccc1` (centres undefined)?
A: EC50: 56.2 µM; IC50: 75.9 µM

Q: What does the source list for `CN(C)c1nc(N(C)C)n2c(-c3ccccc3[N+](=O)[O-])nnc2n1`?
A: EC50: > 60.3 µM; IC50: 41.7 µM
